In patent publication US20190100549A1, “FLAVONOIDE-TYPE COMPOUNDS BEARING AN O-RHAMNOSYL RESIDUE” (Universitaet Hamburg, priority 2016, published 2019):
“And” between values parts separate entries of the source, which are not always exact repeats. Equal values may be shown once.

Legend:
Assay type in all cases: cell-based
[1] = system: NF-κB; experiment: NF-κB activity in NIH3T3-KBF-Luc cells stimulated with TNFα (luciferase); conditions: for % Activation: TNFα alone = 100
Description: NIH3T3-KBF-Luc cells were stably transfected with the KBF-Luc plasmid (Sancho (2003) Mol Pharmacol 63:429-438), which contains three copies of NF-κB binding site (from major histocompatibility complex promoter), fused to a minimal simian virus 40 promoter driving the luciferase gene. Cells (1×10^4 for NIH3T3-KBF-Luc) were seeded the day before the assay on 96-well plate. Then the cells were treated with the test substances for 15 min and then stimulated with 30 ng/ml of TNFα. After 6 h, the cells were washed twice with PBS and lysed in 50 μl lysis buffer containing 25 mM Tris-phosphate (pH 7.8), 8 mM MgCl2, 1 mM DTT, 1% Triton X-100, and 7% glycerol during 15 min at RT in a horizontal shaker. Luciferase activity was measured using a GloMax 96 microplate luminometer (Promega) following the instructions of the luciferase assay kit (Promega, Madison, Wis., USA). […] The experiments for each concentration of the test items were done in triplicate wells.

[2] = system: STAT3; experiment: STAT3 activity in HeLa-STAT3-luc cells stimulated with IFN-γ (luciferase)
Description: HeLa-STAT3-luc cells were stably transfected with the plasmid 4xM67 pTATA TK-Luc. Cells (20×10^3 cells/ml) were seeded 96-well plate the day before the assay. Then the cells were treated with the test substances for 15 min and then stimulated with IFN-γ 25 IU/ml. After 6 h, the cells were washed twice with PBS and lysed in 50 μl lysis buffer containing 25 mM Tris-phosphate (pH 7.8), 8 mM MgCl2, 1 mM DTT, 1% Triton X-100, and 7% glycerol during 15 min at RT in a horizontal shaker. Luciferase activity was measured using GloMax 96 microplate luminometer (Promega) following the instructions of the luciferase assay kit (Promega, Madison, Wis., USA). […] The experiments for each concentration of the test items were done in triplicate wells.

[3] = system: normal human epidermal keratinocytes (NHEK); experiment: Cytotoxicity on NHEK monolayer cultures (MTT reduction assay and morphological observation); conditions: for Viability (%): single values
Description: To determine the cytotoxicity of flavonoid-5-O-α-L-rhamnosides tests were performed versus their aglycon derivatives in cell monolayer cultures. For this purpose concentrations ranging from 1 μM to 250 μM were chosen. The viability of normal human epidermal keratinocytes (NHEK) was twice evaluated by a MTT reduction assay and morphological observation with a microscope. NHEK were grown at 37° C. and 5% CO2 aeration in Keratinocyte-SFM medium supplemented with epidermal growth factor (EGF) at 0.25 ng/mL, pituitary extract (PE) at 25 μg/mL and gentamycin (25 μg/mL) for 24 h and were used at the 3rd passage. For cytotoxicity testing, pre-incubated NHEK were given fresh culture medium containing a specific concentration of test compound and incubated for 24 h. After a medium change at same test concentration cells were incubated a further 24 h until viability was determined. Test results are given in Table B2 and illustrated in FIG. 10.

## COc1ccc(-c2coc3cc(O[C@@H]4OC(C)[C@H](O)C(O)C4O)cc(O[C@@H]4OC(C)[C@H](O)C(O)C4O)c3c2=O)cc1 (stereo partly drawn) [BR1, Biochanin A-5,7-di-O-α-L-rhamnoside]
[1]; 10 μM + 30 ng/ml TNFα
  RLU 1: 259120 RLU
  RLU 2: 247590 RLU
  RLU 3: 229500 RLU
  RLU MEAN: 245403 RLU
  RLU specific: 222040 RLU
  % Activation: 170.3%
[1]; 25 μM + 30 ng/ml TNFα
  RLU 1: 211660 RLU
  RLU 2: 208010 RLU
  RLU 3: 203720 RLU
  RLU MEAN: 207797 RLU
  RLU specific: 184433 RLU
  % Activation: 141.4%
[2]; 25 μM + IFNγ 25 U/ml
  RLU 1: 8162 RLU
  RLU 2: 12819 RLU
  RLU 3: 11157 RLU
  RLU MEAN: 10713 RLU
  RLU specific: 8878 RLU
[2]; 25 μM + IFNγ 25 U/ml, IFNγ alone = 100
  % Activation: 110.41%
[2]; 50 μM + IFNγ 25 U/ml
  RLU 1: 12336 RLU
  RLU 2: 11620 RLU
  RLU 3: 12104 RLU
  RLU MEAN: 12020 RLU
  RLU specific: 10185 RLU
[2]; 50 μM + IFNγ 25 U/ml, IFNγ alone = 100
  % Activation: 126.67%

## COc1ccc(-c2cc(=O)c3c(O)cc(O)cc3o2)cc1O [Diosmetin, 5,7-Trihydroxy-4′-methoxyflavone, reference compound]
[2]; 50 μM test substance, +IFNγ 25 U/ml, IFNγ alone = 100% activation
  % Activation: 50.00%

## COc1ccc(C2CC(=O)c3c(O)cc(O)cc3O2)cc1O (stereo not drawn) [Hesperetin, 3′,5,7-Trihydroxy-4′-methoxyflavanone]
[3]; 1 μM
  Viability (%) Mean: 105%
  Viability (%): 103% and 106%
[3]; 2.5 μM
  Viability (%) Mean: 103%
  Viability (%): 98% and 109%
[3]; 5 μM
  Viability (%) Mean: 106%
  Viability (%): 107% and 106%
[3]; 10 μM
  Viability (%) Mean: 103%
  Viability (%): 101% and 105%
[3]; 25 μM
  Viability (%) Mean: 108%
  Viability (%): 106% and 109%
[3]; 50 μM
  Viability (%) Mean: 106%
  Viability (%): 106%
[3]; 100 μM
  Viability (%) Mean: 99%
  Viability (%): 98% and 100%
[3]; 250 μM
  Viability (%) Mean: 57%
  Viability (%): 54% and 59%
[3]; 250 μM, listed as hesperetin
  Viability (%) Mean: about 50%
